According to patent US6864249B2, “Piperidine and azetidine thrombin inhibitors” (LG Life Sciences, Ltd., priority 1998, dated 2005):
Where a name gives a salt, the structure may show the parent alone.

Molecular target: T1, Thrombin prepared from human plasma (Homo sapiens, UniProt P00734)
T1 construct: Thrombin used in this test was prepared from human plasma; from tissue; host or cells: human plasma
Experiment: In vitro enzyme assay for thrombin inhibition constants (Chromozym TH substrate, Dixon plot)
Assay type: biochemical
Settings: pH 7.8, room temperature
Experimental: In vitro Enzyme Assays for Determining Inhibition Constants
The activity of thrombin was measured spectrophotometrically using tosyl-Gly-Pro-Arg-p-nitroanilide acetate (Chromozym TH, Boehringer Mannheim) as a substrate. […] Each compound was dissolved in DMSO to make a 1 mM stock solution and dilutions were made thereof with assay buffer (0.1 M Tris HCl, 0.15 M NaCl, 0.1% polyethylene glycol 8000, pH 7.8). Different concentrations of inhibitor were mixed with […] of thrombin in 0.8 mL of the buffer. The mixture was incubated for 10 min at room temperature before adding 0.2 mL of the substrate to a final concentration of 20 μM. […] A graph for the reciprocal value of initial velocity to the inhibitor concentration was derived from progress curves by fitting the data using a linear regression program.

Structure (SMILES) | Ki [nM]
NCc1ccc(CNC(=O)[C@@H]2CCCN2C(=O)[C@H](NS(N)(=O)=O)C(c2ccccc2)c2ccccc2)s1 [Example 2, N-aminosulfonyl-D-diphenylalanyl-L-prolyl-[(5-aminomethyl-2-thienyl)methyl]amide.HCl] | 4.7
CS(=O)(=O)N[C@@H](C(=O)N1CCC[C@H]1C(=O)NCc1ccc(/C(N)=N/N)s1)C(c1ccccc1)c1ccccc1 [Example 4, N-methylsulfonyl-D-diphenylalanyl-L-prolyl-[(5-amidrazono-2-thienyl)methyl]amide.TFA] | 0.53
N=C(N)c1ccc(CNC(=O)[C@@H]2CCCN2C(=O)[C@H](NS(=O)(=O)Cc2ccccc2)C(c2ccccc2)c2ccccc2)s1 [Example 6, N-benzylsulfonyl-D-diphenylalanyl-L-prolyl-[(5-amidino-2-thienyl)methyl]amide.TFA] | 0.021
CC(C)(C)OC(=O)N[C@@H](C(=O)N1CCC[C@H]1C(=O)NCc1ccc(C(=N)N)s1)C(c1ccccc1)c1ccccc1 [Example 7, N-t-butoxycarbonyl-D-diphenylalanyl-L-prolyl-[(5-amidino-2-thienyl)methyl]amide.TFA] | 0.007
N=C(N)c1ccc(CNC(=O)[C@@H]2CCCN2C(=O)[C@@H](Cc2ccc(Cl)c(Cl)c2)NS(N)(=O)=O)s1 [Example 9, N-aminosulfonyl-D-3,4-dichlorophenylalanyl-L-prolyl-[(5-amidino-2-thienyl)methyl]amide.TFA] | 0.065
COC(=O)N[C@@H](C(=O)N1CCC[C@H]1C(=O)NCc1ccc(C(=N)N)s1)C(C1CCCCC1)C1CCCCC1 [Example 10, N-methoxycarbonyl-D-dicyclohexylalanyl-L-prolyl-[(5-amidino-2-thienyl)methyl]amide.TFA] | 0.052
CS(=O)(=O)N[C@@H](C(=O)N1CCC[C@H]1C(=O)NCc1cc(C(=N)N)cs1)C(c1ccccc1)c1ccccc1 [Example 12, N-methylsulfonyl-D-diphenylalanyl-L-prolyl-[(4-amidino-2-thienyl)methyl]amide.TFA] | 0.04
CS(=O)(=O)N[C@@H](C(=O)N1CCC[C@H]1C(=O)NCc1cc(CN)cs1)C(c1ccccc1)c1ccccc1 [Example 13, N-methylsulfonyl-D-diphenylalanyl-L-prolyl-[(4-aminomethyl-2-thienyl)methyl]amide.HCl] | 0.073
CS(=O)(=O)N[C@@H](C(=O)N1CCC[C@H]1C(=O)NCc1csc(C(=N)N)c1)C(c1ccccc1)c1ccccc1 [Example 16, N-methylsulfonyl-D-diphenylalanyl-L-prolyl-[(5-amidino-3-thienyl)methyl]amide.TFA] | 0.045
CS(=O)(=O)N[C@@H](C(=O)N1CCC[C@H]1C(=O)NCc1csc(C(=N)NN)c1)C(c1ccccc1)c1ccccc1 [Example 17, N-methylsulfonyl-D-diphenylalanyl-L-prolyl-[(5-amidrazono-3-thienyl)methyl]amide.TFA] | 0.41
CS(=O)(=O)N[C@@H](C(=O)N1CCC[C@H]1C(=O)NCc1csc(CN)c1)C(c1ccccc1)c1ccccc1 [Example 18, N-methylsulfonyl-D-diphenylalanyl-L-prolyl-[(5-aminomethyl-3-thienyl)methyl]amide.TFA] | 6.21
N=C(N)c1ccc(CNC(=O)[C@@H]2CCCN2C(=O)[C@H](NS(=O)(=O)NC2CCCCC2)C(c2ccccc2)c2ccccc2)s1 [Example 20, N-cyclohexylsulfamoyl-D-diphenylalanyl-L-prolyl-[(5-amidino-2-thienyl)methyl]amide.TFA] | 0.011
C=CCOC(=O)N[C@@H](C(=O)N1CCC[C@H]1C(=O)NCc1ccc(C(=N)N)s1)C(c1ccccc1)c1ccccc1 [Example 21, N-allyloxycarbonyl-D-diphenylalanyl-L-prolyl-[(5-amidino-2-thienyl)methyl]amide.TFA] | 0.017
CS(=O)(=O)N[C@H](CC1CCCCC1)C(=O)N1CCC[C@H]1C(=O)NCc1ccc(C(=N)N)s1 [Example 22, N-methylsulfonyl-D-cyclohexylalanyl-L-prolyl-[(5-amidino-2-thienyl)methyl]amide.TFA] | 0.02
N=C(N)c1ccc(CNC(=O)[C@@H]2CCCN2C(=O)[C@@H](CC2CCCCC2)NS(=O)(=O)Cc2ccccc2)s1 [Example 23, N-benzylsulfonyl-D-cyclohexylalany-L-prolyl-[(5-amidino-2-thienyl)methyl]amide.TFA] | 0.03
N=C(N)c1ccc(CNC(=O)[C@@H]2CCCN2C(=O)[C@@H](CC2CCCCC2)NS(=O)(=O)NC2CCCCC2)s1 [Example 24, N-cyclohexylsulfamoyl-D-cyclohexylalanyl-L-prolyl-[(5-amidino-2-thienyl)methyl]amide.TFA] | 0.024
CNS(=O)(=O)N[C@H](CC1CCCCC1)C(=O)N1CCC[C@H]1C(=O)NCc1ccc(C(=N)N)s1 [Example 25, N-methylsulfamoyl-D-cyclohexylalanyl-L-prolyl-[(5-amidino-2-thienyl)methyl]amide.TFA] | 0.053
CS(=O)(=O)N[C@@H](C(=O)N1CCC[C@H]1C(=O)NCc1csc(C(=N)N)c1)C1CCCCC1 [Example 26, N-methylsulfonyl-D-cyclohexylglycinyl-L-prolyl-[(5-amidino-3-thienyl)methyl]amide.TFA] | 4.6
COC(=O)N[C@@H](C(=O)N1CCC[C@H]1C(=O)NCc1csc(C(=N)N)c1)C1CCCCC1 [Example 27, N-methoxycarbonyl-D-cyclohexylglycinyl-L-prolyl-[(5-amidino-3-thienyl)methyl]amide.TFA] | 13.7
CC(C)(C)OC(=O)CN[C@@H](C(=O)N1CCC[C@H]1C(=O)NCc1ccc(C(=N)N)s1)C(c1ccccc1)c1ccccc1 [Example 28, N-(t-butoxycarbonyl)methyl-D-diphenylalanyl-L-prolyl-[(5-amidino-2-thienyl)methyl]amide.2AcOH] | 0.062
CN(CC(=O)O)[C@@H](C(=O)N1CCC[C@H]1C(=O)NCc1ccc(C(=N)N)s1)C(c1ccccc1)c1ccccc1 [Example 30, N-methyl-N-carboxymethyl-D-diphenylalanyl-L-prolyl-[(5-amidino-2-thienyl)methyl]amide.2TFA] | 0.003
N=C(N)c1ccc(CNC(=O)[C@@H]2CCCN2C(=O)[C@H](NS(=O)(=O)O)C(c2ccccc2)c2ccccc2)s1 [Example 31, N-hydroxysulfonyl-D-diphenylalanyl-L-prolyl-[(5-amidino-2-thienyl)methyl]amide.TFA] | 0.1
CS(=O)(=O)N[C@@H](C(=O)N1CC[C@H]1C(=O)NCc1ccc(C(=N)N)s1)C(c1ccccc1)c1ccccc1 [Example 32, N-methylsulfonyl-D-diphenylalanyl-L-azetidine-2-carboxyl-[(5-amidino-2-thienyl)methyl]amide.TFA] | 0.053
Cc1sc(CNC(=O)[C@@H]2CCCN2C(=O)[C@H](NS(C)(=O)=O)C(c2ccccc2)c2ccccc2)cc1C(=N)N [Example 33, N-methylsulfonyl-D-diphenylalanyl-L-prolyl-[(4-amidino-5-methyl-2-thienyl)methyl]amide.TFA] | 0.12
CS(=O)(=O)N[C@@H](C(=O)N1CCC[C@H]1C(=O)NCc1ccc(C(=N)N)o1)C(c1ccccc1)c1ccccc1 [Example 34, N-methylsulfonyl-D-diphenylalanyl-L-prolyl-[(5-amidino-2-furanyl)methyl]amide.TFA] | 1.4
N=C(N)c1csc(CNC(=O)[C@@H]2CCCN2C(=O)[C@H](NS(N)(=O)=O)C(c2ccccc2)c2ccccc2)n1 [Example 37, N-aminosulfonyl-D-diphenylalanyl-L-prolyl-[(4-amidino-2-thiazolyl)methyl]amide.TFA] | 0.12
Cn1c(CNC(=O)[C@@H]2CCCN2C(=O)[C@H](NS(C)(=O)=O)C(c2ccccc2)c2ccccc2)ccc1C(=N)N [Example 38, N-methylsulfonyl-D-diphenylalanyl-L-prolyl-[(5-amidino-1-methyl-2-pyrrolyl)methyl]amide.TFA] | 0.23
CC(C)(C)OC(=O)N[C@@H](C(=O)N1CCC[C@H]1C(=O)NCc1ccc(C(N)=NN)s1)C(c1ccccc1)c1ccccc1 [Example 42, N-Boc-D-Diphenylalanyl-L-prolyl-[(5-amidrazono-2-thienyl)methyl]amide.TFA] | 84
NN=C(N)c1ccc(CNC(=O)[C@@H]2CCCN2C(=O)[C@H](N)C(c2ccccc2)c2ccccc2)s1 [Example 43, D-diphenylalanyl-L-prolyl-[(5-amidrazono-2-thienyl)methyl]amide.2TFA] | 9.1
CS(=O)(=O)N[C@H](Cc1ccccc1)C(=O)N1CCC[C@H]1C(=O)NCc1ccc(C(N)=NN)s1 [Example 44, N-methylsulfonyl-D-phenylalanyl-L-prolyl-[(5-amidrazono-2-thienyl)methyl]amide.TFA] | 395
